± gives the expanded uncertainty stated by the source.
Test: activity coefficient (dimensionless); of the first substance listed, at infinite dilution; xn = mol fraction of the nth substance listed
Details: 101.33 kPa, Liquid, Chromatography, x1 = 0

| SMILES | activity coefficient (328.15 K) | activity coefficient (338.15 K) | activity coefficient (348.15 K) | activity coefficient (358.15 K) | activity coefficient (368.15 K) |
| --- | --- | --- | --- | --- | --- |
| CC(C)CC(C)(C)C [2,2,4-trimethylpentane] + CCCCCCCCCCCCCC[P+](CCCCCC)(CCCCCC)CCCCCC.N#CC(=C=[N-])C#N | 2.22 ± 0.15 | 2.25 ± 0.15 | 2.28 ± 0.16 | 2.31 ± 0.16 | 2.33 ± 0.16 |
| CCC(C)(C)C [2,2-dimethylbutane] + CCCCCCCCCCCCCC[P+](CCCCCC)(CCCCCC)CCCCCC.N#CC(=C=[N-])C#N | 1.85 ± 0.12 | 1.87 ± 0.13 | 1.89 ± 0.13 | 1.91 ± 0.13 | 1.93 ± 0.13 |
| CC(C)CO [2-methyl-1-propanol] + CCCCCCCCCCCCCC[P+](CCCCCC)(CCCCCC)CCCCCC.N#CC(=C=[N-])C#N | 0.412 ± 0.034 | 0.418 ± 0.035 | 0.423 ± 0.035 | 0.429 ± 0.035 | 0.434 ± 0.035 |
| C#CCCCC [1-hexyne] + CCCCCCCCCCCCCC[P+](CCCCCC)(CCCCCC)CCCCCC.N#CC(=C=[N-])C#N | 0.833 ± 0.054 | 0.875 ± 0.056 | 0.914 ± 0.058 | 0.952 ± 0.06 | 0.987 ± 0.062 |
| CCCCO [butan-1-ol] + CCCCCCCCCCCCCC[P+](CCCCCC)(CCCCCC)CCCCCC.N#CC(=C=[N-])C#N | 0.424 ± 0.035 | 0.435 ± 0.035 | 0.445 ± 0.036 | 0.455 ± 0.036 | 0.464 ± 0.036 |
| CCC(C)CC [3-methylpentane] + CCCCCCCCCCCCCC[P+](CCCCCC)(CCCCCC)CCCCCC.N#CC(=C=[N-])C#N | 1.69 ± 0.11 | 1.72 ± 0.12 | 1.75 ± 0.12 | 1.78 ± 0.12 | 1.8 ± 0.1 |
| CCC(C)(C)OC [2-methoxy-2-methylbutane] + CCCCCCCCCCCCCC[P+](CCCCCC)(CCCCCC)CCCCCC.N#CC(=C=[N-])C#N | 1.01 ± 0.06 | 1.06 ± 0.07 | 1.1 ± 0.07 | 1.14 ± 0.07 | 1.18 ± 0.08 |
| C#CCCCCCC [1-octyne] + CCCCCCCCCCCCCC[P+](CCCCCC)(CCCCCC)CCCCCC.N#CC(=C=[N-])C#N | 1.06 ± 0.07 | 1.11 ± 0.07 | 1.16 ± 0.07 | 1.21 ± 0.08 | 1.25 ± 0.08 |
| Cc1ccccc1 [toluene] + CCCCCCCCCCCCCC[P+](CCCCCC)(CCCCCC)CCCCCC.N#CC(=C=[N-])C#N | 0.558 ± 0.04 | 0.585 ± 0.041 | 0.611 ± 0.043 | 0.635 ± 0.044 | 0.656 ± 0.045 |
| C1COCCO1 [1,4-dioxane] + CCCCCCCCCCCCCC[P+](CCCCCC)(CCCCCC)CCCCCC.N#CC(=C=[N-])C#N | 0.578 ± 0.041 | 0.594 ± 0.042 | 0.608 ± 0.043 | 0.628 ± 0.043 | 0.642 ± 0.044 |
| C=CCCCCCCCC [1-decene] + CCCCCCCCCCCCCC[P+](CCCCCC)(CCCCCC)CCCCCC.N#CC(=C=[N-])C#N | 2.32 ± 0.16 | 2.37 ± 0.16 | 2.41 ± 0.16 | 2.45 ± 0.17 | 2.49 ± 0.17 |
| C=C(C)c1ccccc1 [(1-methylethenyl)benzene] + CCCCCCCCCCCCCC[P+](CCCCCC)(CCCCCC)CCCCCC.N#CC(=C=[N-])C#N |  | 0.64 ± 0.044 | 0.678 ± 0.046 | 0.716 ± 0.048 | 0.751 ± 0.049 |
| Cc1cccc(C)c1 [1,3-dimethylbenzene] + CCCCCCCCCCCCCC[P+](CCCCCC)(CCCCCC)CCCCCC.N#CC(=C=[N-])C#N | 0.713 ± 0.048 | 0.74 ± 0.049 | 0.77 ± 0.05 | 0.8 ± 0.052 | 0.826 ± 0.053 |
| CCOCC [diethyl ether] + CCCCCCCCCCCCCC[P+](CCCCCC)(CCCCCC)CCCCCC.N#CC(=C=[N-])C#N | 0.943 ± 0.059 | 0.981 ± 0.062 | 1.01 ± 0.06 | 1.05 ± 0.07 | 1.08 ± 0.07 |
| CC(C)(C)O [2-methylpropan-2-ol] + CCCCCCCCCCCCCC[P+](CCCCCC)(CCCCCC)CCCCCC.N#CC(=C=[N-])C#N | 0.492 ± 0.037 | 0.503 ± 0.038 | 0.513 ± 0.038 | 0.526 ± 0.039 | 0.537 ± 0.039 |
| CCC(C)O (configuration not stated) [butan-2-ol] + CCCCCCCCCCCCCC[P+](CCCCCC)(CCCCCC)CCCCCC.N#CC(=C=[N-])C#N | 0.457 ± 0.036 | 0.468 ± 0.037 | 0.476 ± 0.037 | 0.486 ± 0.037 | 0.495 ± 0.038 |
| COC(C)(C)C [2-methoxy-2-methylpropane] + CCCCCCCCCCCCCC[P+](CCCCCC)(CCCCCC)CCCCCC.N#CC(=C=[N-])C#N | 0.946 ± 0.06 | 0.99 ± 0.062 | 1.02 ± 0.06 | 1.06 ± 0.07 | 1.1 ± 0.07 |

Next, values leading:

| activity coefficient (328.15 K) | activity coefficient (338.15 K) | activity coefficient (348.15 K) | activity coefficient (358.15 K) | activity coefficient (368.15 K) | SMILES |
| --- | --- | --- | --- | --- | --- |
| 0.496 ± 0.038 | 0.52 ± 0.039 | 0.544 ± 0.04 | 0.57 ± 0.041 | 0.593 ± 0.042 | C=Cc1ccccc1 [styrene] + CCCCCCCCCCCCCC[P+](CCCCCC)(CCCCCC)CCCCCC.N#CC(=C=[N-])C#N |
| 1.77 ± 0.12 | 1.81 ± 0.12 | 1.83 ± 0.12 | 1.86 ± 0.13 | 1.88 ± 0.13 | CCCCCC [hexane] + CCCCCCCCCCCCCC[P+](CCCCCC)(CCCCCC)CCCCCC.N#CC(=C=[N-])C#N |
|  | 0.459 ± 0.036 | 0.477 ± 0.037 | 0.502 ± 0.038 | 0.52 ± 0.039 | CCCC(C)=O [pentan-2-one] + CCCCCCCCCCCCCC[P+](CCCCCC)(CCCCCC)CCCCCC.N#CC(=C=[N-])C#N |
| 3.09 ± 0.21 | 3.1 ± 0.21 | 3.1 ± 0.21 | 3.1 ± 0.21 | 3.1 ± 0.21 | CCCCCCCCCC [decane] + CCCCCCCCCCCCCC[P+](CCCCCC)(CCCCCC)CCCCCC.N#CC(=C=[N-])C#N |
| 0.653 ± 0.045 | 0.678 ± 0.046 | 0.699 ± 0.047 | 0.724 ± 0.048 | 0.746 ± 0.049 | CCOC(C)=O [ethyl acetate] + CCCCCCCCCCCCCC[P+](CCCCCC)(CCCCCC)CCCCCC.N#CC(=C=[N-])C#N |
| 2.04 ± 0.14 | 2.06 ± 0.14 | 2.08 ± 0.14 | 2.1 ± 0.14 | 2.12 ± 0.14 | CCCCCCC [heptane] + CCCCCCCCCCCCCC[P+](CCCCCC)(CCCCCC)CCCCCC.N#CC(=C=[N-])C#N |
| 0.39 ± 0.034 | 0.399 ± 0.034 | 0.408 ± 0.034 | 0.417 ± 0.035 | 0.424 ± 0.035 | CO [methanol] + CCCCCCCCCCCCCC[P+](CCCCCC)(CCCCCC)CCCCCC.N#CC(=C=[N-])C#N |
|  | 0.451 ± 0.036 | 0.47 ± 0.037 | 0.494 ± 0.038 | 0.514 ± 0.038 | CCC(=O)CC [pentan-3-one] + CCCCCCCCCCCCCC[P+](CCCCCC)(CCCCCC)CCCCCC.N#CC(=C=[N-])C#N |
| 0.46 ± 0.036 | 0.477 ± 0.037 | 0.494 ± 0.038 | 0.513 ± 0.038 | 0.533 ± 0.039 | CCCC=O [butanal] + CCCCCCCCCCCCCC[P+](CCCCCC)(CCCCCC)CCCCCC.N#CC(=C=[N-])C#N |
| 0.426 ± 0.035 | 0.437 ± 0.035 | 0.447 ± 0.036 | 0.457 ± 0.036 | 0.465 ± 0.036 | CCCO [propan-1-ol] + CCCCCCCCCCCCCC[P+](CCCCCC)(CCCCCC)CCCCCC.N#CC(=C=[N-])C#N |
| 0.65 ± 0.044 | 0.669 ± 0.045 | 0.685 ± 0.046 | 0.704 ± 0.047 | 0.721 ± 0.048 | COC(C)=O [methyl ethanoate] + CCCCCCCCCCCCCC[P+](CCCCCC)(CCCCCC)CCCCCC.N#CC(=C=[N-])C#N |
| 2.35 ± 0.16 | 2.36 ± 0.16 | 2.37 ± 0.16 | 2.38 ± 0.16 | 2.39 ± 0.16 | CCCCCCCC [octane] + CCCCCCCCCCCCCC[P+](CCCCCC)(CCCCCC)CCCCCC.N#CC(=C=[N-])C#N |
| 0.462 ± 0.036 | 0.471 ± 0.037 | 0.477 ± 0.037 | 0.485 ± 0.037 | 0.49 ± 0.037 | CCO [ethanol] + CCCCCCCCCCCCCC[P+](CCCCCC)(CCCCCC)CCCCCC.N#CC(=C=[N-])C#N |
| 1.32 ± 0.09 | 1.33 ± 0.09 | 1.35 ± 0.09 | 1.36 ± 0.09 | 1.38 ± 0.09 | CC1CCCCC1 [methylcyclohexane] + CCCCCCCCCCCCCC[P+](CCCCCC)(CCCCCC)CCCCCC.N#CC(=C=[N-])C#N |
| 1.59 ± 0.11 | 1.62 ± 0.11 | 1.64 ± 0.11 | 1.67 ± 0.11 | 1.69 ± 0.11 | CCCCC [pentane] + CCCCCCCCCCCCCC[P+](CCCCCC)(CCCCCC)CCCCCC.N#CC(=C=[N-])C#N |
| 0.652 ± 0.045 | 0.683 ± 0.046 | 0.709 ± 0.047 | 0.739 ± 0.049 | 0.764 ± 0.05 | CCCC(=O)OC [methyl butanoate] + CCCCCCCCCCCCCC[P+](CCCCCC)(CCCCCC)CCCCCC.N#CC(=C=[N-])C#N |
| 0.701 ± 0.047 | 0.729 ± 0.048 | 0.756 ± 0.05 | 0.783 ± 0.051 | 0.805 ± 0.052 | CCc1ccccc1 [ethylbenzene] + CCCCCCCCCCCCCC[P+](CCCCCC)(CCCCCC)CCCCCC.N#CC(=C=[N-])C#N |
| 1.5 ± 0.1 | 1.54 ± 0.1 | 1.58 ± 0.1 | 1.62 ± 0.11 | 1.66 ± 0.11 | CC(C)OC(C)C [diisopropyl ether] + CCCCCCCCCCCCCC[P+](CCCCCC)(CCCCCC)CCCCCC.N#CC(=C=[N-])C#N |

— the NIST ThermoML archive (doi:10.1016/j.jct.2018.01.003)
